Some test systems named below: CCRF-CEM leukemia; DLD-1 colon; DMS 114 small cell lung; DMS 273 small cell lung; EKVX NSCLC; KM20L2 colon; LXFL 529 NSCLC; M19-MEL melanoma; OVCAR-5 ovarian; SK-MEL-2 melanoma; SNB-78 CNS; XF 498 CNS; HOP-18 NSCLC; DU-145 prostate.
Holding throughout (assay): inhibition of tumour cell growth, NCI panel, 48 h

Where “and” joins values, the source holds several entries; their conditions need not be identical. Equal values may be shown once.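 Where inhibition never reached the appropriate level, the endpoint shown equals the highest concentration tested. Otherwise, values were interpolated linearly from a five-concentration, 48-hour dose response in 96-well plates. GI50 = concentration required for 50% inhibition of growth. TGI denotes the concentration required for complete inhibition of growth.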

With `O=C1CCCCCCCCCCC1CN1CCCCC1` (stereo unspecified), the TGI in the experiment with CCRF-CEM leukemia, with DLD-1 colon, in the experiment on DMS 114 small cell lung, in the experiment on DMS 273 small cell lung, with EKVX NSCLC and with KM20L2 colon was over 100 µM in each case. Further, the TGI in the experiment on LXFL 529 NSCLC, in the experiment with M19-MEL melanoma, in the experiment with OVCAR-5 ovarian, in the experiment on SK-MEL-2 melanoma, in the experiment on SNB-78 CNS and in the experiment with XF 498 CNS was over 100 µM in each case.

For `CC(C)(C)C(=O)OC12/C(=N/O)CCCCCC1c1ccccc12` (stereo unspecified), the TGI turned out to be 64 µM in the experiment on CCRF-CEM leukemia; 34.6 µM in the experiment on DLD-1 colon; 35.4 µM in the experiment with DMS 114 small cell lung; 34.3 µM with DMS 273 small cell lung; 34 µM with HOP-18 NSCLC; 36.5 µM with KM20L2 colon. The TGI in the experiment on LXFL 529 NSCLC was 30.3 µM; in the experiment on M19-MEL melanoma it was 30.2 µM; in the experiment with OVCAR-5 ovarian, 28.7 µM; with SK-MEL-2 melanoma, 37.3 µM; in the experiment on SNB-78 CNS it was 46.6 µM.

Consider `Cc1c(C(=O)/C=C/c2ccccc2O)c(=O)n(-c2ccccc2)n1C`, for which the TGI was 86.9 µM in the experiment with CCRF-CEM leukemia; 27.9 µM with DLD-1 colon; over 100 µM in the experiment with DMS 114 small cell lung; over 100 µM in the experiment on DMS 273 small cell lung; over 100 µM with EKVX NSCLC; over 100 µM in the experiment on KM20L2 colon. Moreover, the TGI with LXFL 529 NSCLC was 37.5 µM; in the experiment on M19-MEL melanoma it was 74.6 µM; in the experiment on OVCAR-5 ovarian, over 100 µM; in the experiment with SK-MEL-2 melanoma, 38.4 µM; with SNB-78 CNS it was over 100 µM; in the experiment with XF 498 CNS it was 46.3 µM.

`Cc1c(C(=O)/C=C/c2ccc(N(C)C)cc2)c(=O)n(-c2ccccc2)n1C`: the TGI in the experiment with CCRF-CEM leukemia, with DMS 114 small cell lung, in the experiment with DMS 273 small cell lung, with EKVX NSCLC, in the experiment on KM20L2 colon and in the experiment on LXFL 529 NSCLC was over 100 µM each time. For the same molecule, the TGI with M19-MEL melanoma, in the experiment on OVCAR-5 ovarian, with SK-MEL-2 melanoma, in the experiment with SNB-78 CNS and in the experiment on XF 498 CNS was over 100 µM each time.

On to `CCOC(=O)CC(=O)Nc1cccc2[nH]cnc12`, for which the TGI with CCRF-CEM leukemia, in the experiment with DU-145 prostate, in the experiment on EKVX NSCLC, with OVCAR-5 ovarian and with SK-MEL-2 melanoma was over 100 µM throughout.

Take `O=[N+]([O-])c1ccc(C=NCC2CCCN3CCCCC23)cc1` (stereo unspecified): the TGI in the experiment on CCRF-CEM leukemia, with DU-145 prostate, in the experiment on EKVX NSCLC, in the experiment on OVCAR-5 ovarian and in the experiment with SK-MEL-2 melanoma was over 100 µM each time.

As to `Cc1ccc(NC(=O)CSc2nc(=O)[nH]c3nc[nH]c23)cc1`, the TGI in the experiment on CCRF-CEM leukemia, in the experiment on DU-145 prostate, in the experiment with EKVX NSCLC, in the experiment with OVCAR-5 ovarian and with SK-MEL-2 melanoma was over 100 µM each time.

On to `CC1=C(C(=O)c2ccccc2)C23C(=O)N(c4ccccc4)C(=O)C2=C(O)C=CC3(O)N1` (stereo unspecified), for which the TGI in the experiment on CCRF-CEM leukemia was over 100 µM; with DU-145 prostate it was over 100 µM; in the experiment with EKVX NSCLC, over 100 µM; in the experiment with OVCAR-5 ovarian, over 100 µM; in the experiment with SK-MEL-2 melanoma it was 57.3 µM.

Regarding `NC1=CN2c3ccccc3N(CC(=O)O)C2C=C1` (stereo unspecified), the TGI in the experiment with CCRF-CEM leukemia, in the experiment on DU-145 prostate, in the experiment with EKVX NSCLC, in the experiment on OVCAR-5 ovarian and in the experiment with SK-MEL-2 melanoma was over 100 µM throughout.

`O=CC12C3CCC1C2C(=O)C3` (stereo unspecified): the TGI with CCRF-CEM leukemia, with DU-145 prostate, in the experiment with EKVX NSCLC, in the experiment on OVCAR-5 ovarian and in the experiment on SK-MEL-2 melanoma was over 100 µM each time.

Consider `CC1OC(OC2C(OC(=O)[C@]34CCC(C)(C)C[C@H]3C3=CC[C@@H]5[C@@]6(C)CC[C@H](OC7OC(C(=O)O)C(O)C(OC8OCC(O)C(O)C8O)C7O)C(C)(C)[C@@H]6CC[C@@]5(C)[C@]3(C)CC4)OCC(O)C2O)C(O)C(OC2OCC(O)C(O)C2O)C1OC1OCC(O)C(OC2OCC(O)C(O)C2O)C1O` (stereo partly specified), for which the TGI in the experiment on CCRF-CEM leukemia is 32.1 µM and 31.4 µM; in the experiment with DU-145 prostate, 40.6 µM and 85.1 µM; in the experiment with EKVX NSCLC, 22.6 µM and 35.7 µM; in the experiment with OVCAR-5 ovarian, 20.3 µM and 32.4 µM; in the experiment with SK-MEL-2 melanoma, 14.5 µM and 34.2 µM. For the same molecule, the GI50 is 7.26 µM and 17.7 µM with OVCAR-5 ovarian; 6.31 µM and 17.3 µM in the experiment on SK-MEL-2 melanoma.

`CN(/N=C/c1ccnc2ccccc12)c1ccc(Cl)cc1[N+](=O)[O-]`: the TGI in the experiment with CCRF-CEM leukemia, with DU-145 prostate, in the experiment on EKVX NSCLC, in the experiment on OVCAR-5 ovarian and in the experiment on SK-MEL-2 melanoma was over 100 µM each time.

On to `O=C(N/N=C(/COc1ccc([N+](=O)[O-])cc1)N=Cc1ccncc1)c1ccncc1`, for which the TGI in the experiment on CCRF-CEM leukemia, in the experiment with DU-145 prostate, in the experiment on EKVX NSCLC, in the experiment on OVCAR-5 ovarian and with SK-MEL-2 melanoma was over 100 µM in each case.

Turning to `CN(c1ccccc1Cl)S(=O)(=O)c1ccc([N+](=O)[O-])cc1`, the TGI in the experiment on CCRF-CEM leukemia, with DU-145 prostate, in the experiment on EKVX NSCLC, with OVCAR-5 ovarian and with SK-MEL-2 melanoma was over 100 µM throughout.

`CCCCCCCCCCC1OC([C@@H](O)CC[C@H](O)C2CC[C@@H](CCCCCCCC(O)CC3=CC(C)OC3=O)O2)CCC1O` (stereo partly specified): the TGI with CCRF-CEM leukemia was over 25 µM; in the experiment with DU-145 prostate, over 25 µM; in the experiment with EKVX NSCLC, over 25 µM; with OVCAR-5 ovarian, over 25 µM; with SK-MEL-2 melanoma, over 18.1 µM. Further, the GI50 was 9.5 µM in the experiment on EKVX NSCLC and 6.55 µM with SK-MEL-2 melanoma.

With `COc1ccc2cc(CN3CCC(C4CCNCC4)CC3)ccc2c1`, the TGI with CCRF-CEM leukemia stood at 12.7 µM; in the experiment with DU-145 prostate it was 15 µM; with EKVX NSCLC, 21.2 µM; in the experiment with OVCAR-5 ovarian, 20.4 µM; with SK-MEL-2 melanoma, 3.81 µM.

With `COc1ccc(OC)c(NS(=O)(=O)c2ccc3nc(C)n(NS(=O)(=O)c4cc(OC)ccc4OC)c(=O)c3c2)c1`, the TGI in the experiment with CCRF-CEM leukemia, in the experiment on DU-145 prostate, in the experiment with EKVX NSCLC, with OVCAR-5 ovarian and with SK-MEL-2 melanoma was over 100 µM each time.

Consider `CC(=O)N=C1N(/C=C2\C(=O)Oc3ccccc3C2=O)C(=O)/C(=C/c2ccc(Cl)cc2Cl)N1C`, for which the TGI with CCRF-CEM leukemia, in the experiment with DU-145 prostate, in the experiment on EKVX NSCLC, in the experiment on OVCAR-5 ovarian and in the experiment with SK-MEL-2 melanoma was over 100 µM in each case.

Regarding `COc1cc2c(=O)cnoc2cc1O`, the TGI in the experiment with CCRF-CEM leukemia, in the experiment on DU-145 prostate, in the experiment with EKVX NSCLC, in the experiment with OVCAR-5 ovarian and with SK-MEL-2 melanoma was over 100 µM in each case.

For the molecule `COc1c(O)cc2c(c1O)C(=O)/C(=C/c1ccc(O)cc1)CO2`, the TGI is 65.3 µM in the experiment on CCRF-CEM leukemia; 78.1 µM with DU-145 prostate; 71.9 µM in the experiment on EKVX NSCLC; 68.6 µM in the experiment on OVCAR-5 ovarian; over 100 µM in the experiment on SK-MEL-2 melanoma.

As to `Cc1cc(S(=O)(=O)Nc2nc(N)nc(N(C)C)n2)c(SCC(=O)O)cc1Cl`, the TGI with CCRF-CEM leukemia, with DU-145 prostate, with EKVX NSCLC, in the experiment with OVCAR-5 ovarian and with SK-MEL-2 melanoma was over 10 µM throughout.

Take `COc1ccc(N2C(=O)C3c4[nH]c5ccc(F)cc5c4C4CCC(c5ccccc5)CC4C3C2=O)cc1` (stereo unspecified): the TGI was 16.5 µM in the experiment with CCRF-CEM leukemia; over 100 µM in the experiment on DU-145 prostate; 63 µM in the experiment with EKVX NSCLC; 47.8 µM in the experiment with OVCAR-5 ovarian; 59.6 µM with SK-MEL-2 melanoma.

Take `C=C1C(=O)O[C@@H]2C=C(C)C3=CC(=O)[C@](C)(C[C@H](OC(=O)/C(C)=C\C)[C@@H]12)O3`: the TGI in the experiment with CCRF-CEM leukemia is 0.82 µM; with DU-145 prostate, 15.8 µM; in the experiment on EKVX NSCLC it was 8.78 µM; in the experiment with OVCAR-5 ovarian, 3.86 µM; in the experiment on SK-MEL-2 melanoma, 6.73 µM.

`c1c[nH]c(C23C4C5C6C4C2C6C53)n1` (stereo unspecified): the TGI with CCRF-CEM leukemia, in the experiment on DU-145 prostate, in the experiment on EKVX NSCLC, with OVCAR-5 ovarian and with SK-MEL-2 melanoma was over 100 µM in each case.

With `Nc1nn2c(nc(N)c3c(N)[nH]nc32)c1N=Nc1ccc(Br)cc1`, the TGI is over 100 µM in the experiment with CCRF-CEM leukemia; over 100 µM with DU-145 prostate; over 100 µM in the experiment on EKVX NSCLC; over 96.2 µM with OVCAR-5 ovarian; 36.5 µM in the experiment on SK-MEL-2 melanoma.

Take `CN(C)CCCn1nc(N)c2nc3cc(Cl)ccc3nc21`: the TGI is 96.5 µM in the experiment on CCRF-CEM leukemia; over 100 µM in the experiment with DU-145 prostate; over 100 µM in the experiment on EKVX NSCLC; over 100 µM in the experiment on OVCAR-5 ovarian; over 75.7 µM in the experiment on SK-MEL-2 melanoma.

With `CC(C)C1=CC23CCC4C(C)(C(=O)O)CCCC4(C)C2CC1C1C(=O)N(c2ccccc2)C(=O)C13` (stereo unspecified), the TGI in the experiment on CCRF-CEM leukemia, with DLD-1 colon, in the experiment with DMS 114 small cell lung, in the experiment on DMS 273 small cell lung, with HOP-18 NSCLC and in the experiment with KM20L2 colon was over 100 µM in each case. Further, the TGI with LXFL 529 NSCLC was over 100 µM; in the experiment with M19-MEL melanoma, over 100 µM; with OVCAR-5 ovarian, over 100 µM; in the experiment with SK-MEL-2 melanoma, 73.3 µM; in the experiment with XF 498 CNS, over 100 µM.

Consider `O=C1CC(c2cccc(Br)c2)n2cccc21` (stereo unspecified), for which the TGI was over 100 µM in the experiment with CCRF-CEM leukemia; over 100 µM in the experiment on DU-145 prostate; over 100 µM in the experiment on EKVX NSCLC; over 100 µM in the experiment on OVCAR-5 ovarian; 95.3 µM in the experiment on SK-MEL-2 melanoma.

Regarding `CC1C2(C)OC(=N)C(C#N)(C(c3cccc([N+](=O)[O-])c3)O2)C1(C#N)C#N` (stereo unspecified), the TGI was 52.2 µM in the experiment on CCRF-CEM leukemia; over 100 µM with DU-145 prostate; 98.3 µM in the experiment on EKVX NSCLC; over 100 µM in the experiment with OVCAR-5 ovarian; 61.7 µM in the experiment with SK-MEL-2 melanoma.

With `Oc1ccc(Cl)cc1CN1CCN(Cc2cc(Cl)ccc2O)C1`, the TGI in the experiment with CCRF-CEM leukemia was over 100 µM; in the experiment on DU-145 prostate it was 11.6 µM; in the experiment with EKVX NSCLC it was 6.09 µM; in the experiment with OVCAR-5 ovarian, 16.9 µM; with SK-MEL-2 melanoma, 4.45 µM.

For the molecule `CCOC(=O)C(Cc1cccn1C(=O)OC(C)(C)C)[N+](=O)[O-]` (stereo unspecified), the TGI is 35.4 µM in the experiment with CCRF-CEM leukemia; 70.2 µM with DU-145 prostate; over 100 µM in the experiment on EKVX NSCLC; 63.2 µM in the experiment on OVCAR-5 ovarian; 53.9 µM with SK-MEL-2 melanoma.

These data come from PubChem BioAssay (NCI).
